Source: patent US9000043B2, “Phenoxyethoxy compounds” (Eli Lilly and Company, priority 2013, dated 2015)

Legend:
human EP4 [1] = molecular target: T1, human EP4 (Homo sapiens (Human), UniProt P35408); test: In vitro antagonist activity in human whole blood (reversal of PGE2 inhibition of LPS-induced TNFα production); assay type: cell-based; conditions: LPS 10 μg/mL with 10 nM PGE2, geometric mean±SD, n=11, read-out: IC50 in human blood TNFα induction assay
Excerpt: The inhibitory effects of PGE2 on LPS-induced TNFα production from macrophages/monocytes are believed to be mediated by EP4 receptors (See Murase, A., et al., Life Sciences, 82:226-232 (2008)). The ability of the compound of Example 1 to reverse the inhibitory effect of PGE2 on LPS-induced TNFα production in human whole blood is an indicia of functional activity.
Blood is collected from normal volunteer donors into sodium heparin vacutainer tubes. Donors have not taken NSAIDs or celecoxib within 48 hours or glucocorticoids within two weeks prior to the donation. All tubes/donor are pooled into 50 mL Falcon conical centrifuge tubes and 98 μL/well is distributed into 96-well tissue culture plates (Falcon 3072). […] TNFα levels in 2 μL plasma are quantified by a commercially available enzyme immunoassay (R&D Systems DY210), using Immulon 4 HBX plates (Thermo 3855) and 3,3′,5,5′ tetramethylbiphenyl-4,4′-diamine substrate (KPL 50-76-03). The plates are read at A450-A650 on a plate reader (Molecular Devices Versamax) using SOFTmaxPRO (v. 4.3.1) software. IC50s are calculated using Graphpad Prism (v. 4) nonlinear regression, with sigmoidal dose response curve fitting. Results are expressed as the geometric mean±standard deviation; n=number of independent determinations.
Target sequence in this assay (P35408 whole entry, looked up): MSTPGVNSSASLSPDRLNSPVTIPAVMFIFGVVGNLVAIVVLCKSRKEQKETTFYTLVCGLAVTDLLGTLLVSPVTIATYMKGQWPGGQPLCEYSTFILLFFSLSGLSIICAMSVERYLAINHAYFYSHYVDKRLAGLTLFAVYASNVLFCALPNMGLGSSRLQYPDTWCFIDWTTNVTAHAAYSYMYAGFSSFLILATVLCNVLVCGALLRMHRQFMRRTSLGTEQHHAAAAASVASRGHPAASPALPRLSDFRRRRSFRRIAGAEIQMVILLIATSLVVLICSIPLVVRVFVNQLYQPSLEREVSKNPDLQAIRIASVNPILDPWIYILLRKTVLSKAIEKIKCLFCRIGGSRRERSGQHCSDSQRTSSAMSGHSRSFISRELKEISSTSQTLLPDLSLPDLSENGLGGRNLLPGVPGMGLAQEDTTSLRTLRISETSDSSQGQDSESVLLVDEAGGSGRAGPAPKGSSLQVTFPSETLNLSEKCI

human EP2 = human EP2 (Homo sapiens (Human), UniProt P43116); test: In vitro binding to human EP2 ([3H]-PGE2 displacement, membranes); conditions: HEK293 membranes, [3H]-PGE2, n = 2; read-out: hEP2, Ki
human EP2, sequence (P43116 whole entry, canonical isoform): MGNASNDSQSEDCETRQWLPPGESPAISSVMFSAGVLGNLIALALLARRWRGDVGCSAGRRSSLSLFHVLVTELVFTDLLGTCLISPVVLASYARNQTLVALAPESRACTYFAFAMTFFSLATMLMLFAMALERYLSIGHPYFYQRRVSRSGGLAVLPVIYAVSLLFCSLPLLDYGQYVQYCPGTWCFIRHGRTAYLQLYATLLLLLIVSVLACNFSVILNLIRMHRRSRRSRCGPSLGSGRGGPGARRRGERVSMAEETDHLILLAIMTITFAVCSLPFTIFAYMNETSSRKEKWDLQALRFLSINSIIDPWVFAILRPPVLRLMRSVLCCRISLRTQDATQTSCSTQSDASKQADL
Experimental: (§1) hEP1 and hEP4 membranes are prepared from recombinant HEK293 cells stably expressing the human EP1 (Genbank accession number AY275470) or EP4 (Genbank accession number AY429109) receptors. hEP2 and hEP3 membranes are prepared from HEK293 cells transiently transfected with EP2 (Genbank accession number AY275471) or EP3 (isoform VI: Genbank accession number AY429108) receptor plasmids. Frozen cell pellets are homogenized in homogenization buffer using a Teflon/glass homogenizer. Membrane protein is aliquoted and quick frozen on dry ice prior to storage at −80° C. Homogenization buffer contained 10 mM Tris-HCl, pH 7.4, 250 mM sucrose, 1 mM EDTA, 0.3 mM indomethacin and plus Complete™, with EDTA, obtained from Roche Molecular Biochemicals (Catalog Number 1 697 498).
(§2) Kd values for [3]H-PGE2 binding to each receptor are determined by saturation binding studies or homologous competition. […] Nonspecific binding is calculated by comparing binding in the presence and absence of 2 μM of PGE2. The membranes are harvested by filtration (TomTek harvester), washed 4 times with cold buffer (10 mM MES pH 6.0 with KOH, 10 mM MgCl2), dried in a 60° C. oven, and the radioactivity is quantified as counts per minute (CPM) using a TopCount detector. Percent specific binding is calculated as the percent of the binding in the absence of any inhibitor, corrected for binding in the presence of 2 μM of PGE2. […]

human EP1 = human EP1 (Homo sapiens (Human), UniProt P34995); test: In vitro binding to human EP1 ([3H]-PGE2 displacement, membranes); conditions: HEK293 membranes, [3H]-PGE2, n = 1; read-out: hEP1, Ki
human EP1, sequence (P34995 whole entry): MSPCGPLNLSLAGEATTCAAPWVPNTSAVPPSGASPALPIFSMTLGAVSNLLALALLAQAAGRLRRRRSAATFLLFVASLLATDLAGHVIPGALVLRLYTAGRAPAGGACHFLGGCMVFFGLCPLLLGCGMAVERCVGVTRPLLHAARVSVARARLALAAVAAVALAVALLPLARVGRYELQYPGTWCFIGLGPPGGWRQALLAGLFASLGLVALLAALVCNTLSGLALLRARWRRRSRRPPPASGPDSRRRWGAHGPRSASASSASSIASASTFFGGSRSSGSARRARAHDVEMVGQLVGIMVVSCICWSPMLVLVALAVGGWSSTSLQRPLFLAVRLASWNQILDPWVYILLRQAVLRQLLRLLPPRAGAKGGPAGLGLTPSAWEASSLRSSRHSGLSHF
Experimental: as §1, §2

human EP4 [2] = molecular target: T1, human EP4; test: In vitro binding to human EP4 ([3H]-PGE2 displacement, membranes); conditions: HEK293 membranes, [3H]-PGE2, n = 3; read-out: hEP4, Ki
Experimental: as §1, §2
Target sequence in this assay (P35408 whole entry, looked up): as the sequence (P35408 whole entry, looked up) above

human EP4 [3] = molecular target: T1, human EP4; test: In vitro human EP4 functional antagonist activity (PGE2-stimulated cAMP, HTRF); assay type: cell-based; conditions: HEK293 cells expressing human EP4, PGE2 at EC80, n=5; read-out: IC50 measured at human EP4 (inhibition of PGE2-stimulated cAMP production)
Experimental: Assays are conducted in recombinant HEK293 cells stably expressing human EP4 receptor. The cell lines are maintained by culturing in DMEM with high glucose and pyridoxine hydrochloride (Invitrogen) supplemented with 10% fetal bovine serum (FBS), 1 mM sodium pyruvate, 10 mM HEPES, 500 μg/mL geneticin and 2 mM L-glutamine. Confluent cultures are grown at 37° C. in an atmosphere containing 5% CO2. Cells are harvested using 2.5% Trypsin-EDTA, suspended in freeze media (FBS with 6% DMSO) at 10^7 cells/mL and aliquots are stored in liquid nitrogen. Just before assay, cells are thawed in DMEM, centrifuged, and resuspended in cAMP buffer.
The inhibition of PGE2-stimulated cAMP production by EP4 antagonists is measured using HTRF (Cisbio catalogue #62AM4PEB). An aliquot equivalent to 4000 cells is incubated with 50 μL cAMP assay buffer containing PGE2 in a concentration predetermined to produce an EC80 (0.188 nM PGE2 from Sigma, catalog # P5640-10 mg) and EP4 antagonists at room temperature for 20 minutes. cAMP assay buffer contains 500 mL HBSS, 0.1% BSA, 20 mM HEPES and 200 μM IBMX (Sigma 15879). […] The HTRF signal is detected using an EnVision® plate reader (Perkin-Elmer) to calculate the ratio of fluorescence at 665 nm to that at 620 nm. […]
Target sequence in this assay (P35408 whole entry): as the sequence (P35408 whole entry, looked up) above

rat EP4 = rat EP4 (Rattus norvegicus (Rat), UniProt P43114); test: In vitro rat EP4 functional antagonist activity (PGE2-stimulated cAMP, HTRF); assay type: cell-based; conditions: HEK293 cells expressing rat EP4, PGE2 at EC80, n=1; read-out: IC50 measured at rat EP4 (inhibition of PGE2-stimulated cAMP)
rat EP4, sequence (P43114 whole entry): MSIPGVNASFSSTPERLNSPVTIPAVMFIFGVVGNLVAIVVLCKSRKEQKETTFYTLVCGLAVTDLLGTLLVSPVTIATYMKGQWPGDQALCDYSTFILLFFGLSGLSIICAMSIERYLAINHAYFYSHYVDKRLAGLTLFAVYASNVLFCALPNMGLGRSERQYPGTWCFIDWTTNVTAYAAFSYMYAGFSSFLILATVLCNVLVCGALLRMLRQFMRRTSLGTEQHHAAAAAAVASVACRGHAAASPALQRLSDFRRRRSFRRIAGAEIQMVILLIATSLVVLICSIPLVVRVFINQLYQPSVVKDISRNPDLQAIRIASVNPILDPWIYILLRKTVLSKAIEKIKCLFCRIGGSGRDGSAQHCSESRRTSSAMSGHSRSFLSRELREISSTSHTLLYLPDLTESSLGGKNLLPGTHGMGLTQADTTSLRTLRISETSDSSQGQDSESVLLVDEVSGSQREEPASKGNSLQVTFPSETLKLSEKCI
Experimental: Rat EP4 cDNA (Genebank Accession# NM_03276) is cloned into pcDNA 3.1 vector and subsequently transfected in HEK293 cells for receptor expression. Rat EP4 stable clone is scaled up and then frozen down as cell bank for future compounds screening. To test EP4 antagonist compounds in rEP4 cells, thaw the frozen cells and then resuspend cells in cAMP assay buffer. The cAMP buffer is made by HBSS without Phenol Red (Hyclone, SH30268) supplemented with 20 mM HEPES (Hyclone, SH30237), 0.1% BSA (Gibco, 15260) and 125 μM IBMX (Sigma, 15879). The cells are plated into 96-well half area flat-bottom polystyrene black plates (Costar 3694). Compounds are serial diluted with DMSO to give 10-point concentration response curves. Then diluted compounds are added into cAMP assay buffer which contains PGE2 (Cayman 14010, in a concentration predetermined to produce an EC80) at ratio of DMSO/buffer at 1/100. The cells are treated with compounds in the presence of PGE2 (EC80 concentration) for 30 minutes at room temperature. The cAMP levels generated from the cells are quantified by a cAMP HTRF assay kit (Cisbio 62AM4PEC). The plates are read on an EnVision plate reader using HTRF optimized protocol (PerkinElmer). IC50s are calculated using Graphpad Prism (v. 4) nonlinear regression, sigmoidal dose response curve fitting.

human EP3 (isoform VI) = human EP3 (isoform VI) (Homo sapiens (Human), UniProt P43115); test: In vitro binding to human EP3 ([3H]-PGE2 displacement, membranes); conditions: HEK293 membranes, [3H]-PGE2, n = 1; read-out: hEP3, Ki
human EP3 (isoform VI), sequence (P43115 other isoform, or with tags, fused parts or gaps): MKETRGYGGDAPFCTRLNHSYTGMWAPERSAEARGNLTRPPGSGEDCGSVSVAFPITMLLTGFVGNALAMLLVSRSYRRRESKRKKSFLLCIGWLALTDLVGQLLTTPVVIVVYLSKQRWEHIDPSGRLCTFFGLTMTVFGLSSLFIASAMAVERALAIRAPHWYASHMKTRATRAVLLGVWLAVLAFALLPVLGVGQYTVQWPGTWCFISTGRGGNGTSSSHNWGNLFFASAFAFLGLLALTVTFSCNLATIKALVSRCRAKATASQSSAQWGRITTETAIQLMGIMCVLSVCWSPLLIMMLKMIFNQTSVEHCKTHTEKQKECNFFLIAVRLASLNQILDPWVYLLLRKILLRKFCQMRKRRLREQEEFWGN
Experimental: as §1, §2

CC(C)[C@@H](OCCOc1ccccc1)C(=O)N[C@@H](C)c1ccc(C(=O)O)cc1 [Example 1, 4-[(1S)-1-[[(2R)-3-methyl-2-(2-phenoxyethoxy)butanoyl]amino]ethyl]benzoic acid]
IC50 (human EP4 [1]): 0.02 ± 0.024 µM | Ki (human EP2): 0.261 ± 0.108 µM | Ki (human EP1): > 17.4 µM | Ki (human EP4 [2]): 0.00045 ± 0.00026 µM | IC50 (human EP4 [3]): 0.0022 ± 0.0017 µM | IC50 (rat EP4): 0.002 µM | Ki (human EP3 (isoform VI)): > 12.7 µM
